Test results taken from US20220153746A1, “NITROGEN OXIDE-DONATING PDE-5 AND/OR PDE-6 INHIBITOR COMPOUNDS, AND USES THEREOF” (ILDONG PHARMACEUTICAL CO., LTD., priority 2020, published 2022).
Like-named read-outs stand apart in the source and are kept apart here.

Assay: PK Phase (Group 2): plasma concentrations and pharmacokinetics of Compound 18 and its metabolite Compound 4 after once daily ocular instillation of Compound 18 nanosuspension for 7 days
Assay type: in vivo, New Zealand white rabbits
Conditions: for Cmax / Tmax / AUC(0-t) / half-life: male, New Zealand white, rabbit, plasma, topical or ocular, 0.8 mg/kg; for AUC(0-t): read-out: AUC0-24; for Day 1 Compound 4 Plasma Concentration / Day 7 Compound 4 Plasma Concentration: metabolite after Compound 18 dosing
Excerpt: This example illustrates the procedures and results for the levels of Compound 18 and its metabolite Compound 4 in plasma and ocular tissues of normotensive rabbits following ocular instillation of Compound 18 once daily for 7 consecutive days.
Twenty five (25) male New Zealand white rabbits were divided into 5 groups of varying amounts of animals per group.
The Test article, Compound 18 was formulated as a 2% nanosuspension in DI water containing 0.2% PS80 (polyoxyethylenesorbitan, monooleate (Tween 80)) and 0.4% HPMC (hydroxypropylmethylcellulose) at pH 6.77. Referred to herein as “Compound 18 nanosuspension.”
The study consisted of three groups (Groups 1-3) of 19 male rabbits (NZW) that underwent once daily morning ocular installation (1 eyedrop) for 7 consecutive days (Day 0-6). Groups 4-5 each consisted of 3 male rabbits (NZW) that were not dosed.
Blood samples (1 mL) were collected from the jugular vein at the intervals set out below for each group. The samples were then inverted several times following collection and held on wet ice until centrifuged. Samples were centrifuged within 60 minutes of collection under refrigeration (set at 5° C. for 10 minutes at 2000 g. […]
Plasma and tissue samples from treated animals (Groups 1-3) were analyzed for Compound 18 and its metabolite Compound 4 concentrations by LC-MS/MS.
Pharmacokinetic analysis was conducted using WinNonlin Version 6.2.1 (Pharsight, Mountain View, Calif.), operating as a validated software system. Noncompartmental analysis was conducted using the extravascular administration model for ocular instillation dosing.
The peak plasma concentration, time to achieve peak plasma concentration, half-life, and area under the plasma concentration-time curve (Cmax, Tmax, T1/2, and AUC) were calculated from the PK phase individual animal plasma concentrations for each sampling time/dose group for Compound 18 and its metabolite Compound 4.
BA Assay: Quantitation Range 0.05 to 100 ng/mL for Compound 18, 0.15 to 100 ng/mL for Compound 4.
Plasma calibration standards (PLSTD-A) with Compound 18 concentrations ranging from 0.0500 to 100 ng/mL were prepared by spiking control rabbit plasma with appropriate calibration curve spiking solutions (SS-A). PLQC-A samples with concentrations of 0.150, 5.00, 50.0, and 80.0 ng/mL were prepared by spiking control rabbit plasma with appropriate SS-A-QC spiking solutions.
Plasma calibration standards (PLSTD-B) with Compound 4 concentrations ranging from 0.150 to 100 ng/mL were prepared by spiking control rabbit plasma with appropriate calibration curve spiking solutions (SS-B). PLQC-B samples with concentrations of 0.450, 5.00, 50.0, and 80.0 ng/mL were prepared by spiking control rabbit plasma with appropriate SS-B-QC spiking solutions. PLQC-B-Dil samples at 800 ng/mL were prepared by spiking control rabbit plasma with the SS-B-QC-Dil spiking solution at 16,000 ng/mL, and then diluted 20× with control rabbit plasma prior to extraction.
1. Thaw plasma standards, plasma QC samples, ocular tissue QC samples, incurred plasma samples and ocular tissue samples (AH/VH) (if applicable) on wet ice. Control plasma can be thawed in tepid water. Vortex before taking aliquots.
2. Pipet 50 μL of water for Reagent Blank, 50 μL of control plasma for Double Blank and Blank, 50 μL of pre-spiked plasma for Standards and QC samples, 50 μL of incurred plasma samples (if applicable) into a 96 well plate.
5. Add 200 μL of working internal standard (WIS) solution to all remaining samples.
6. Seal the plate and vortex for approximately 5 minutes. Centrifuge the plate at 3500 rpm for 10 minutes at ˜4° C.
7. Transfer ˜200 μL of each sample supernatant into the appropriate wells of a 96 well plate. Submit for LC MS/MS analysis.
A total of 25 rabbits were used for this study, including 19 treated rabbits and 6 control rabbits. […]

[1] = Day 1, Compound 18 0.8 mg/kg ocular instillation, Mean, n=4
[2] = Day 1, Compound 18 0.8 mg/kg ocular instillation, animal 207664
[3] = Day 1, Compound 18 0.8 mg/kg ocular instillation, animal 207665
[4] = Day 1, Compound 18 0.8 mg/kg ocular instillation, animal 207666
[5] = Day 1, Compound 18 0.8 mg/kg ocular instillation, animal 207667
[6] = Day 7, Compound 18 0.8 mg/kg ocular instillation, Mean, n=4
[7] = Day 7, Compound 18 0.8 mg/kg ocular instillation, animal 207664
[8] = Day 7, Compound 18 0.8 mg/kg ocular instillation, animal 207665
[9] = Day 7, Compound 18 0.8 mg/kg ocular instillation, animal 207666
[10] = Day 7, Compound 18 0.8 mg/kg ocular instillation, animal 207667

CCCc1nn(C)c2c(=O)[nH]c(-c3cc(S(=O)(=O)N4CC(CCCO)C4)ccc3OCC)nc12 [Compound 4, 5-(2-ethoxy-5-((3-(3-hydroxypropyl)azetidin-1-yl)sulfonyl)phenyl)-1-methyl-3-propyl-1,6-dihydro-7H-pyrazolo[4,3-d]pyrimidin-7-one]
Cmax [1]: 0.944 ± 0.565 ng/mL | Tmax [1]: 30 min | AUC(0-t) [1]: 1.14 ± 0.957 ng·h/mL | Cmax [2]: 0.497 ng/mL | Tmax [2]: 30 min | AUC(0-t) [2]: 0.575 ng·h/mL | Cmax [3]: 0.527 ng/mL | Tmax [3]: 30 min | half-life (Day 1, Compound 18 0.8 mg/kg ocular instillation, animal 207665 (one rabbit reportable)): 24.8 min | AUC(0-t) [3]: 0.321 ng·h/mL | Cmax [4]: 1.7 ng/mL | Tmax [4]: 30 min | AUC(0-t) [4]: 2.46 ng·h/mL | Cmax [5]: 1.05 ng/mL | Tmax [5]: 30 min | AUC(0-t) [5]: 1.18 ng·h/mL | half-life (Day 7, Compound 18 0.8 mg/kg ocular instillation, Mean, n=2): 79.2 ± 42.1 min | Cmax [6]: 0.963 ± 0.17 ng/mL | Tmax [6]: 45 ± 17.4 min | AUC(0-t) [6]: 1.71 ± 0.416 ng·h/mL | Cmax [7]: 0.851 ng/mL | Tmax [7]: 30 min | AUC(0-t) [7]: 1.13 ng·h/mL | Cmax [8]: 0.938 ng/mL | Tmax [8]: 30 min | half-life [8]: 49.4 min | AUC(0-t) [8]: 1.72 ng·h/mL | Cmax [9]: 0.851 ng/mL | Tmax [9]: 60 min | half-life [9]: 109 min | AUC(0-t) [9]: 1.92 ng·h/mL | Cmax [10]: 1.21 ng/mL | Tmax [10]: 60 min | AUC(0-t) [10]: 2.08 ng·h/mL | Day 1 Compound 4 Plasma Concentration (2 h, animal 207665): BQL (BQL = Below lower limit of quantitation (0.0500 ng/mL for Compound 18 and 0.150 ng/mL for Compound 4)) | Day 1 Compound 4 Plasma Concentration (4 h, animal 207664): BQL (BQL = Below lower limit of quantitation (0.0500 ng/mL for Compound 18 and 0.150 ng/mL for Compound 4)) | Day 7 Compound 4 Plasma Concentration (4 h, animal 207664): BQL (BQL = Below lower limit of quantitation (0.0500 ng/mL for Compound 18 and 0.150 ng/mL for Compound 4)) | Day 1 Compound 4 Plasma Concentration (4 h, animal 207665): BQL (BQL = Below lower limit of quantitation (0.0500 ng/mL for Compound 18 and 0.150 ng/mL for Compound 4)) | Day 7 Compound 4 Plasma Concentration (4 h, animal 207665): BQL (BQL = Below lower limit of quantitation (0.0500 ng/mL for Compound 18 and 0.150 ng/mL for Compound 4)) | Day 1 Compound 4 Plasma Concentration (4 h, animal 207667): BQL (BQL = Below lower limit of quantitation (0.0500 ng/mL for Compound 18 and 0.150 ng/mL for Compound 4)) | Day 1 Compound 4 Plasma Concentration (8 h, animal 207664): BQL (BQL = Below lower limit of quantitation (0.0500 ng/mL for Compound 18 and 0.150 ng/mL for Compound 4)) | Day 7 Compound 4 Plasma Concentration (8 h, animal 207664): BQL (BQL = Below lower limit of quantitation (0.0500 ng/mL for Compound 18 and 0.150 ng/mL for Compound 4)) | Day 1 Compound 4 Plasma Concentration (8 h, animal 207665): BQL (BQL = Below lower limit of quantitation (0.0500 ng/mL for Compound 18 and 0.150 ng/mL for Compound 4)) | Day 1 Compound 4 Plasma Concentration (8 h, animal 207666): BQL (BQL = Below lower limit of quantitation (0.0500 ng/mL for Compound 18 and 0.150 ng/mL for Compound 4)) | Day 7 Compound 4 Plasma Concentration (8 h, animal 207666): BQL (BQL = Below lower limit of quantitation (0.0500 ng/mL for Compound 18 and 0.150 ng/mL for Compound 4)) | Day 1 Compound 4 Plasma Concentration (8 h, animal 207667): BQL (BQL = Below lower limit of quantitation (0.0500 ng/mL for Compound 18 and 0.150 ng/mL for Compound 4)) | Day 7 Compound 4 Plasma Concentration (8 h, animal 207667): BQL (BQL = Below lower limit of quantitation (0.0500 ng/mL for Compound 18 and 0.150 ng/mL for Compound 4)) | Day 1 Compound 4 Plasma Concentration (24 h, animal 207664): BQL (BQL = Below lower limit of quantitation (0.0500 ng/mL for Compound 18 and 0.150 ng/mL for Compound 4)) | Day 7 Compound 4 Plasma Concentration (24 h, animal 207664): BQL (BQL = Below lower limit of quantitation (0.0500 ng/mL for Compound 18 and 0.150 ng/mL for Compound 4)) | Day 1 Compound 4 Plasma Concentration (24 h, animal 207665): BQL (BQL = Below lower limit of quantitation (0.0500 ng/mL for Compound 18 and 0.150 ng/mL for Compound 4)) | Day 7 Compound 4 Plasma Concentration (24 h, animal 207665): BQL (BQL = Below lower limit of quantitation (0.0500 ng/mL for Compound 18 and 0.150 ng/mL for Compound 4)) | Day 1 Compound 4 Plasma Concentration (24 h, animal 207666): BQL (BQL = Below lower limit of quantitation (0.0500 ng/mL for Compound 18 and 0.150 ng/mL for Compound 4)) | Day 7 Compound 4 Plasma Concentration (24 h, animal 207666): BQL (BQL = Below lower limit of quantitation (0.0500 ng/mL for Compound 18 and 0.150 ng/mL for Compound 4)) | Day 1 Compound 4 Plasma Concentration (24 h, animal 207667): BQL (BQL = Below lower limit of quantitation (0.0500 ng/mL for Compound 18 and 0.150 ng/mL for Compound 4)) | Day 7 Compound 4 Plasma Concentration (24 h, animal 207667): BQL (BQL = Below lower limit of quantitation (0.0500 ng/mL for Compound 18 and 0.150 ng/mL for Compound 4))
